The source made the active and inactive calls. The rule behind the calls is not given here.
Assays:
[1] = target: Envelope glycoprotein gp160 (Human immunodeficiency virus 1, UniProt Q6QLK5); assay: Binding affinity to HIV1 YU-2 gp120 by isothermal titration calorimetric analysis
[2] = target: Envelope glycoprotein gp160 (Human immunodeficiency virus 1) (UniProt Q6QLK5); assay: Binding affinity to HIV1JRFL envelope glycoprotein expressed in human HOS cells assessed as fold change in binding to CoRBS 17b incubated for 1 hrs by cell based ELISA relative to BNM-III-170; details: JRFL
[3] = system: Human immunodeficiency virus 1; assay: Induction of sensitization to HIV-1CH58TF infected in CD4-positive T cells assessed as […] cellular cytotoxicity at 50 uM incubated for 4 to 6 hrs by AquaVivid/eFluor670 staining based by flow cytometric analysis; type: functional, organism-based

Chain of Envelope glycoprotein gp160 (Human immunodeficiency virus 1) (Q6QLK5 1-814): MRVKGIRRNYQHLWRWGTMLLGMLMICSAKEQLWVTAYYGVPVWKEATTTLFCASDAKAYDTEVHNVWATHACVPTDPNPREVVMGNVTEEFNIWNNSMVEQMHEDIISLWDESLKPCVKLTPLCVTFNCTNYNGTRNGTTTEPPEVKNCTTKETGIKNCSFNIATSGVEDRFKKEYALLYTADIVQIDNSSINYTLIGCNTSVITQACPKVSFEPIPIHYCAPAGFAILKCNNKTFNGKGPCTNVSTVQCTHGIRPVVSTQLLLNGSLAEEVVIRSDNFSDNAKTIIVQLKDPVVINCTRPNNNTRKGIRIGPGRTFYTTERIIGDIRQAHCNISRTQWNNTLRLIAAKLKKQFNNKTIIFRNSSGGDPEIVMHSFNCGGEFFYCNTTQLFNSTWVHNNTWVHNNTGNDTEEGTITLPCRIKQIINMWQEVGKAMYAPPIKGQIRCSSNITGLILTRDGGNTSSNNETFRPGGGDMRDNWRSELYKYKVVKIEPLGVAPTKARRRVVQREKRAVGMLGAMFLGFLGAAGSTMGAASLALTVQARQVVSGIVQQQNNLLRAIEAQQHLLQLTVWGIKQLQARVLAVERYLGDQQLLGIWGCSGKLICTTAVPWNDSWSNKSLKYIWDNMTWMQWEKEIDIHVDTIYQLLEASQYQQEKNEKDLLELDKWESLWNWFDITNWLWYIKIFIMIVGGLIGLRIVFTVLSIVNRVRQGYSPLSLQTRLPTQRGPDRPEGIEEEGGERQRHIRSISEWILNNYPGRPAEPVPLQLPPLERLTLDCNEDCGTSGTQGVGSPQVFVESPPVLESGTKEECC
Chain of Envelope glycoprotein gp160 (Q6QLK5 whole entry): as the sequence (Q6QLK5 1-814) above

With `CS(=O)(=O)N1CCC[C@H](C(=O)Nc2ccc(Cl)cc2)C1` the Kd [1] was > 10000 nM and the fold change (FC) [2] was 0.31.

In the case of `CS(=O)(=O)N1CC(C(=O)Nc2ccc(Cl)c(F)c2)Cc2ccccc21` (racemic), the fold change (FC) [2] is reported as 0.24.

`O=C(Nc1ccc(Cl)c(F)c1)[C@@H]1CCCOC1` gave a fold change (FC) [2] of 0.28.

In the case of `COC(=O)N1CCC[C@H](C(=O)Nc2ccc(Cl)c(F)c2)C1`, the Kd [1] is reported as 1800 nM, the Activity [3] is reported as “Active” and the fold change (FC) [2] is reported as 0.5.

Compound `CCCNC(=N)N1CCC[C@H](C(=O)Nc2ccc(Cl)c(F)c2)C1` has a fold change (FC) [2] of 0.85.

`CS(=O)(=O)N1CCNC(C(=O)Nc2ccc(Cl)c(F)c2)C1` (racemic) was tested, and the fold change (FC) [2] was 0.1.

For `NCCCNC(=O)N1C[C@H](N)C[C@H](C(=O)Nc2ccc(Cl)c(F)c2)C1`, the fold change (FC) [2] was 0.06.

`CC(C)COC(=O)N1CCC[C@H](C(=O)Nc2ccc(Cl)c(F)c2)C1` showed a fold change (FC) [2] of 0.62.

For `CCOC(=O)N1CCC[C@H](C(=O)Nc2ccc(Cl)c(F)c2)C1`, the Kd [1] was 770 nM, the Activity [3] was “Active” and the fold change (FC) [2] was 0.53.

`O=C(Nc1ccc(Cl)c(F)c1)C1CCCOC1` (racemic) showed a fold change (FC) [2] of 0.48.

With `NCCNC(=O)N1CCC[C@H](C(=O)Nc2ccc(Cl)c(F)c2)C1` the Activity [3] was “Active” and the fold change (FC) [2] was 0.58.

`NCCOC(=O)N1C[C@H](N)C[C@H](C(=O)Nc2ccc(Cl)c(F)c2)C1` showed a fold change (FC) [2] of 0.07.

With `O=C(Nc1ccc(Cl)c(F)c1)[C@H]1CCCN(S(=O)(=O)c2ccccc2)C1` the fold change (FC) [2] was 0.45.

`CS(=O)(=O)N1CCC(C(=O)Nc2ccc(Cl)c(F)c2)CC1` was tested, and the fold change (FC) [2] was 0.21.

For `CS(=O)(=O)N1CCC[C@H](C(=O)Nc2ccc(Cl)c(F)c2)C1`, the Kd [1] was 2800 nM, the Activity [3] was “Active” and the fold change (FC) [2] was 0.58.

`CCCNC(=O)N1C[C@H](N)C[C@H](C(=O)Nc2ccc(Cl)c(F)c2)C1` showed a fold change (FC) [2] of 0.11.

`CS(=O)(=O)N1CCCC(NC(=O)c2ccc(Cl)c(F)c2)C1` (racemic) showed a fold change (FC) [2] of 0.08.

Compound `CCS(=O)(=O)N1CCCC(C(=O)Nc2ccc(Cl)c(F)c2)C1` (racemic) has a fold change (FC) [2] of 0.42.

Work on `O=C(Nc1ccc(Cl)c(F)c1)[C@H]1CCCOC1` yielded a fold change (FC) [2] of 0.58.

With `NCCNC(=O)N1C[C@H](N)C[C@H](C(=O)Nc2ccc(Cl)c(F)c2)C1` the fold change (FC) [2] was 0.06.

`CS(=O)(=O)N1CCC[C@H](C(=O)Oc2ccc(Cl)c(F)c2)C1` gave a fold change (FC) [2] of 0.07.

`CCCOC(=O)N1CCC[C@H](C(=O)Nc2ccc(Cl)c(F)c2)C1` showed a fold change (FC) [2] of 0.51.

With `CCCNC(=O)N1CCC[C@H](C(=O)Nc2ccc(Cl)c(F)c2)C1` the Activity [3] was “Active” and the fold change (FC) [2] was 0.55.

With `CS(=O)(=O)N1CCC(C(=O)Nc2ccc(Cl)c(F)c2)C1` (racemic) the fold change (FC) [2] was 0.36.

Work on `CS(=O)(=O)N1CCC[C@H](C(=O)Nc2ccc(Br)cc2)C1` yielded a fold change (FC) [2] of 0.36.

With `CS(=O)(=O)N1CCC[C@@H](C(=O)Nc2ccc(Cl)cc2)C1` the fold change (FC) [2] was 0.08.

`CCS(=O)(=O)N1CCC[C@H](C(=O)Nc2ccc(Cl)c(F)c2)C1` showed a fold change (FC) [2] of 0.35.

Work on `NCCCNC(=O)N1CCC[C@H](C(=O)Nc2ccc(Cl)c(F)c2)C1` yielded a fold change (FC) [2] of 0.25.

For `CS(=O)(=O)N1CCOC(C(=O)Nc2ccc(Cl)c(F)c2)C1` (racemic), the fold change (FC) [2] was 0.28.
